# Tests used:
# [1] = molecular target: T1, 5-HT3A receptors (Homo sapiens, UniProt P46098); type: cell-based
# T1 construct: expressed in transfected cells; host or cells: Xenopus oocytes injected with cRNA (pGEMHE)
# T1 sequence (P46098 24-478): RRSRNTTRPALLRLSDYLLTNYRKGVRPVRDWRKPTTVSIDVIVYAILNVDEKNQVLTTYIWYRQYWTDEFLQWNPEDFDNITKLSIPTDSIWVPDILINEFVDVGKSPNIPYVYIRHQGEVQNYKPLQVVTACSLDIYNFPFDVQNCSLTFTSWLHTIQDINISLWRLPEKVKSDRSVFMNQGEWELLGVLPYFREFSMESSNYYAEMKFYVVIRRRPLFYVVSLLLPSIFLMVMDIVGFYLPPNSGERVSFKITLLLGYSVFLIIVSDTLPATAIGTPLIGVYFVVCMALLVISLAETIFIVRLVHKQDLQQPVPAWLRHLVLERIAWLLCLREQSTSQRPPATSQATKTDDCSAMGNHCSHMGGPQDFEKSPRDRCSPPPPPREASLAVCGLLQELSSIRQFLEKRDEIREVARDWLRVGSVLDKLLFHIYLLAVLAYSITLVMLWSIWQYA
# [2] = molecular target: 5-HT3 receptor; conditions: cited from earlier work
# [3] = tested on: 5-HT3 receptor; conditions: cited from earlier work; remark: listed apart in the source
# [4] = molecular target: nicotinic acetylcholine receptors; conditions: read-out: IC50, block of nicotinic acetylcholine receptors; cited from earlier work
# [5] = tested on: α7 nACh receptors; conditions: cited from earlier work
# [6] = tested on: 5-HT3 receptors; conditions: cited from earlier work
structure (smiles),measurement,setting,value
NCCc1c[nH]c2ccc(O)cc12 [5-HT],Hill slope of agonist concentration-response curve,[1],2.06 ± 0.14
same,desensitisation time constant τ of inward current,[1],42 ± 5 s
CN1[C@@H]2C[C@@H](OC(=O)c3c[nH]c4ccccc34)C[C@H]1[C@@H]1O[C@@H]12 [SDZ-ICT 322],pKd,[2],9.2
same,pA2,[3],10.6
CN1[C@@H]2C[C@@H](OC(=O)[C@H](CO)c3ccccc3)C[C@H]1[C@@H]1O[C@@H]12 [scopolamine],IC50,[4],928 µM
same,expression of α7 nACh receptors,[5],increases the expression
CN1C2CCC1CC(OC(=O)c1ccccc1)C2 (stereo not shown) [tropane benzoate],affinity at 5-HT3 receptors,[6],63 nM

# Reference: publication PMC4920643 (Neuropharmacology, 2016)
